# Source: PubChem BioAssay (NCI)
#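 Test compounds were applied to cells in 96-well plates for 48 hours at 5 doses. GI50: concentration for 50% inhibition of growth. TGI: total growth inhibition.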
# What was measured:
# Assay in all cases: NCI tumour cell line growth inhibition, 48 h
# [1] = system: CAKI-1 renal
# [2] = system: LOX IMVI melanoma
# [3] = system: M14 melanoma
# [4] = system: MDA-MB-435
# [5] = system: MOLT-4 leukemia
# [6] = system: PC-3 prostate
# [7] = system: SK-MEL-28 melanoma
# [8] = system: SNB-75 CNS
# [9] = system: CCRF-CEM leukemia
# [10] = system: OVCAR-5 ovarian
SMILES,GI50 [1] [µM],TGI [1] [µM],GI50 [2] [µM],TGI [2] [µM],GI50 [3] [µM],TGI [3] [µM],GI50 [4] [µM],TGI [4] [µM],GI50 [5] [µM],TGI [5] [µM],GI50 [6] [µM],TGI [6] [µM],GI50 [7] [µM],TGI [7] [µM],GI50 [8] [µM],TGI [8] [µM],GI50 [9] [µM],TGI [9] [µM],GI50 [10] [µM],TGI [10] [µM]
N#CCCCCCn1c2ccccc2c2c3c(c4c5ccccc5[nH]c4c21)C(=O)N(O)C3=O,1.85,4.01,0.24,1.44,0.595,2.51,1.19,3.09,0.37,4.33,1.39,4.51,1.8,6.61,0.684,9.55,–,–,–,–
CCOC(=O)Nc1ccc2nc(Sc3ccc(Cl)cc3)sc2c1,1.95,42,4.45,25.3,1.66,24.6,0.222,0.561,4.2,> 87.6,4.27,> 100,13.5,> 100,2.96,33.9,4,> 100,21.6,> 100
CC(=O)O[C@H]1Cc2c([nH]c3ccccc23)[C@@H](c2ccc(Cl)cc2)N1C(=O)CCNC(C)(C)C,2.77,7.01,2.43,6.72,2.05,6.96,4.68,9.06,2.16,8.99,3.48,8.12,4.65,9.04,1.64,7.52,5.12,14.8,4.24,8.54
COc1ccc(OC)c(/C=C/C(=O)c2ccc(SC)cc2)c1,2.39,18.5,12.3,28,12.6,27.1,2.09,8.91,3.26,> 100,3.49,14.9,10.1,51.1,8.88,> 100,2.22,13.8,18.3,36.4
COC(=O)C1=C(C)NC(C)=C(C(=O)OC)C1c1ccccc1[N+](=O)[O-],38.8,> 100,> 100,> 100,> 100,> 100,> 100,> 100,78.2,> 100,50.3,> 100,> 100,> 100,27,> 100,> 100,> 100,> 100,> 100
Cn1cc(C2=C(c3cccc(Cl)c3)C(=O)NC2=O)c2ccccc21,> 17,> 25,> 25,> 25,8.03,23,12.6,> 25,15.8,> 25,18.3,> 25,> 17.5,> 25,6.65,> 25,> 25,> 25,> 25,> 25
CC1CCCc2c(CC3CC(=O)NC(=O)C3)nc(N)nc21 (stereo unspecified),–,> 100,–,> 100,–,> 100,–,> 100,–,> 100,–,> 100,–,> 100,–,> 100,–,> 100,–,> 100
COc1ccc2c(c1)/C(=N/OC(C)=O)c1c-2c(Nc2ccc(/C(C)=N/OC(C)=O)cc2)nc2ccccc12,31.8,98.2,29.1,63.5,68.9,> 100,86.2,> 100,26.1,72.8,18.8,38.4,44.5,> 100,25,75.9,23.9,47.4,> 100,> 100
CC[C@@]1(O)C(=O)N(CCN(C)C)Cc2c1cc1n(c2=O)Cc2cc3ccccc3nc2-1,4.27,> 100,6.19,> 50.7,9.31,> 100,> 100,> 100,3.93,> 100,41.3,> 100,34.7,> 92.8,17.4,> 100,4.74,> 100,> 100,> 100
COc1ccc2nc(NC(=O)C(=O)C(C#N)c3ccc(CC#N)cc3)sc2c1 (stereo unspecified),–,> 100,–,> 100,–,> 100,–,–,–,> 100,–,–,–,> 100,–,> 100,–,> 100,–,> 100
NS(=O)(=O)c1ccc(N=Nc2cc3ccccc3c(C(=O)O)c2O)cc1,–,> 100,–,> 100,–,> 100,–,> 100,–,> 100,–,> 90.3,–,> 100,–,> 94.4,–,> 100,–,> 94.5
c1ccc2c(Nc3ccc4c(c3)OCO4)c3ccoc3nc2c1,12.3,33.3,17.9,41.7,14.3,29.8,3.97,14.4,5.69,> 100,18.9,95.5,19.2,58.6,–,–,15.2,> 100,25.9,60.9
C=CCN1C(=O)C/C(=C2/CCC(=O)N2CC=C)C1=O,–,> 100,–,> 100,–,> 100,–,–,–,> 100,–,–,–,> 100,–,> 100,–,> 100,–,> 100
c1cc[c]([Sn]([O]c2cccc3cccnc23)([c]2ccccc2)[c]2ccccc2)cc1,0.0188,0.0852,0.0132,0.0261,0.0166,0.0319,–,–,0.0102,0.0402,–,–,0.0116,0.0299,0.0509,0.198,0.0115,0.11,0.0119,0.0424
